In patent publication US11117900B2 (Vertex Pharmaceuticals Incorporated, priority 2012, dated 2021):

Test system: HCT116 colorectal cancer cells
Test: Cisplatin sensitization assay (96 h MTS cell viability);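 also: compound concentration needed to lower the IC50 of Cisplatin alone by a set fold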
Type: cell-based
Settings: Cisplatin sensitization value
Summary of the method: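 The MTS viability read, after 1 h with reagent, followed 96 h of co-treatment at 37° C. in 5% CO2. Both compound and cisplatin were titrated 2-fold from a 10 μM top final concentration in a complete concentration matrix on HCT116 cells. Scores +++/++/+ reflect cisplatin sensitization value ranges.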

SMILES | Cisplatin Sensitization Assay
Nc1nn2cc(F)cnc2c1C(=O)Nc1cncc(F)c1N1CCC(C(=O)N2CC(N3CCCC3)C2)CC1 [I-G-43, 2-amino-6-fluoro-N-(5-fluoro-4-(4-(3-(pyrrolidin-1-yl)azetidine-1-carbonyl)piperidin-1-yl)pyridin-3-yl)pyrazolo[1,5-a]pyrimidine-3-carboxamide] | +++ (Compounds with a Cisplatin sensitization value of <0.02 μM are marked with “+++.”)
Nc1nn2cc(F)cnc2c1C(=O)Nc1cncc(F)c1N1CCC(C(=O)N2CC3CCC(C2)N3)CC1 [I-G-44, N-(4-(4-(3,8-diazabicyclo[3.2.1]octane-3-carbonyl)piperidin-1-yl)-5-fluoropyridin-3-yl)-2-amino-6-fluoropyrazolo[1,5-a]pyrimidine-3-carboxamide] | +++ (Compounds with a Cisplatin sensitization value of <0.02 μM are marked with “+++.”)
C[C@@H]1CN(C(=O)C2CCN(c3c(F)cncc3NC(=O)c3c(N)nn4cc(F)cnc34)CC2)CCN1 [I-G-45, (R)-2-amino-6-fluoro-N-(5-fluoro-4-(4-(3-methylpiperazine-1-carbonyl)piperidin-1-yl)pyridin-3-yl)pyrazolo[1,5-a]pyrimidine-3-carboxamide] | +++ (Compounds with a Cisplatin sensitization value of <0.02 μM are marked with “+++.”)
Nc1nn2cc(F)cnc2c1C(=O)Nc1cncc(F)c1N1CCC(C(=O)N2CCN3CCC2C3)CC1 (centres unmarked) [I-G-46, N-(4-(4-(1,4-diazabicyclo[3.2.1]octane-4-carbonyl)piperidin-1-yl)-5-fluoropyridin-3-yl)-2-amino-6-fluoropyrazolo[1,5-a]pyrimidine-3-carboxamide] | +++ (Compounds with a Cisplatin sensitization value of <0.02 μM are marked with “+++.”)
Nc1nn2cc(F)cnc2c1C(=O)Nc1cncc(Cl)c1N1CCC(C(=O)N2CCNCC2)CC1 [I-G-48, 2-amino-N-(5-chloro-4-(4-(piperazine-1-carbonyl)piperidin-1-yl)pyridin-3-yl)-6-fluoropyrazolo[1,5-a]pyrimidine-3-carboxamide] | +++ (Compounds with a Cisplatin sensitization value of <0.02 μM are marked with “+++.”)
Nc1nn2cc(F)cnc2c1C(=O)Nc1cncc(F)c1N1CCC(C(=O)N2CC(N3CCC3)C2)CC1 [I-G-49, N-(4-(4-([1,3′-biazetidine]-1′-carbonyl)piperidin-1-yl)-5-fluoropyridin-3-yl)-2-amino-6-fluoropyrazolo[1,5-a]pyrimidine-3-carboxamide] | +++ (Compounds with a Cisplatin sensitization value of <0.02 μM are marked with “+++.”)
C[C@@H]1CN(C(=O)C2CCN(c3c(F)cncc3NC(=O)c3c(N)nn4cc(F)cnc34)CC2)CCN1C [I-G-50, (R)-2-amino-N-(4-(4-(3,4-dimethylpiperazine-1-carbonyl)piperidin-1-yl)-5-fluoropyridin-3-yl)-6-fluoropyrazolo[1,5-a]pyrimidine-3-carboxamide] | +++ (Compounds with a Cisplatin sensitization value of <0.02 μM are marked with “+++.”)
Nc1nn2cc(F)cnc2c1C(=O)Nc1cncc(F)c1N1CCC(C(=O)N2CC3CNCC3C2)CC1 (centres unmarked) [I-G-51, 2-amino-6-fluoro-N-(5-fluoro-4-(4-(octahydropyrrolo[3,4-c]pyrrole-2-carbonyl)piperidin-1-yl)pyridin-3-yl)pyrazolo[1,5-a]pyrimidine-3-carboxamide] | +++ (Compounds with a Cisplatin sensitization value of <0.02 μM are marked with “+++.”)
CN1C2CCC1CN(C(=O)C1CCN(c3c(F)cncc3NC(=O)c3c(N)nn4cc(F)cnc34)CC1)C2 [I-G-52, 2-amino-6-fluoro-N-(5-fluoro-4-(4-(8-methyl-3,8-diazabicyclo[3.2.1]octane-3-carbonyl)piperidin-1-yl)pyridin-3-yl)pyrazolo[1,5-a]pyrimidine-3-carboxamide] | +++ (Compounds with a Cisplatin sensitization value of <0.02 μM are marked with “+++.”)
CN1CC2CC1CN2C(=O)C1CCN(c2c(F)cncc2NC(=O)c2c(N)nn3cc(F)cnc23)CC1 (centres unmarked) [I-G-53, 2-amino-6-fluoro-N-(5-fluoro-4-(4-(5-methyl-2,5-diazabicyclo[2.2.1]heptane-2-carbonyl)piperidin-1-yl)pyridin-3-yl)pyrazolo[1,5-a]pyrimidine-3-carboxamide] | +++ (Compounds with a Cisplatin sensitization value of <0.02 μM are marked with “+++.”)
CN1CCN(C(=O)C2(C)CCN(c3c(F)cncc3NC(=O)c3c(N)nn4cc(F)cnc34)CC2)CC1 [I-G-54, 2-amino-6-fluoro-N-(5-fluoro-4-(4-methyl-4-(4-methylpiperazine-1-carbonyl)piperidin-1-yl)pyridin-3-yl)pyrazolo[1,5-a]pyrimidine-3-carboxamide] | +++ (Compounds with a Cisplatin sensitization value of <0.02 μM are marked with “+++.”)
Cc1cncc(NC(=O)c2c(N)nn3cc(F)cnc23)c1N1CCC(C(=O)N2CCN(C)CC2)CC1 [I-G-55, 2-amino-6-fluoro-N-(5-methyl-4-(4-(4-methylpiperazine-1-carbonyl)piperidin-1-yl)pyridin-3-yl)pyrazolo[1,5-a]pyrimidine-3-carboxamide] | +++ (Compounds with a Cisplatin sensitization value of <0.02 μM are marked with “+++.”)
Cc1cncc(NC(=O)c2c(N)nn3cc(F)cnc23)c1N1CCC(C(=O)N2CCNCC2)CC1 [I-G-56, 2-amino-6-fluoro-N-(5-methyl-4-(4-(piperazine-1-carbonyl)piperidin-1-yl)pyridin-3-yl)pyrazolo[1,5-a]pyrimidine-3-carboxamide] | +++ (Compounds with a Cisplatin sensitization value of <0.02 μM are marked with “+++.”)
Nc1nn2cc(F)cnc2c1C(=O)Nc1cncc(F)c1N1CCC(C(=O)N2CC(N3CCCCC3)C2)CC1 [I-G-57, 2-amino-6-fluoro-N-(5-fluoro-4-(4-(3-(piperidin-1-yl)azetidine-1-carbonyl)piperidin-1-yl)pyridin-3-yl)pyrazolo[1,5-a]pyrimidine-3-carboxamide] | +++ (Compounds with a Cisplatin sensitization value of <0.02 μM are marked with “+++.”)
Nc1nn2cc(F)cnc2c1C(=O)Nc1cncc(F)c1N1CCC(C(=O)N2CC[C@H](N3CCCC3)C2)CC1 [I-G-58, (S)—N-(4-(4-([1,3′-bipyrrolidine]-1′-carbonyl)piperidin-1-yl)-5-fluoropyridin-3-yl)-2-amino-6-fluoropyrazolo[1,5-a]pyrimidine-3-carboxamide] | +++ (Compounds with a Cisplatin sensitization value of <0.02 μM are marked with “+++.”)
Nc1nn2cc(F)cnc2c1C(=O)Nc1cncc(F)c1N1CCC(C(=O)N2CCC(N3CCCC3)CC2)CC1 [I-G-59, 2-amino-6-fluoro-N-(5-fluoro-4-(4-(4-(pyrrolidin-1-yl)piperidine-1-carbonyl)piperidin-1-yl)pyridin-3-yl)pyrazolo[1,5-a]pyrimidine-3-carboxamide] | +++ (Compounds with a Cisplatin sensitization value of <0.02 μM are marked with “+++.”)
Nc1nn2cc(F)cnc2c1C(=O)Nc1cncc(F)c1N1CCC(C(=O)N2CCC(N3CCCCC3)CC2)CC1 [I-G-60, N-(4-(4-([1,4′-bipiperidine]-1′-carbonyl)piperidin-1-yl)-5-fluoropyridin-3-yl)-2-amino-6-fluoropyrazolo[1,5-a]pyrimidine-3-carboxamide] | +++ (Compounds with a Cisplatin sensitization value of <0.02 μM are marked with “+++.”)
C[C@H]1CN(C(=O)C2CCN(c3c(F)cncc3NC(=O)c3c(N)nn4cc(F)cnc34)CC2)CCN1 [I-G-61, (S)-2-amino-6-fluoro-N-(5-fluoro-4-(4-(3-methylpiperazine-1-carbonyl)piperidin-1-yl)pyridin-3-yl)pyrazolo[1,5-a]pyrimidine-3-carboxamide] | +++ (Compounds with a Cisplatin sensitization value of <0.02 μM are marked with “+++.”)
Nc1nn2cc(F)cnc2c1C(=O)Nc1cncc(F)c1N1CCC(C(=O)N2CCNC3CC32)CC1 (centres unmarked) [I-G-62, N-(4-(4-(2,5-diazabicyclo[4.1.0]heptane-2-carbonyl)piperidin-1-yl)-5-fluoropyridin-3-yl)-2-amino-6-fluoropyrazolo[1,5-a]pyrimidine-3-carboxamide] | +++ (Compounds with a Cisplatin sensitization value of <0.02 μM are marked with “+++.”)
CC1(O)CN(C(=O)C2CCN(c3c(F)cncc3NC(=O)c3c(N)nn4cc(F)cnc34)CC2)C1 [I-G-63, 2-amino-6-fluoro-N-(5-fluoro-4-(4-(3-hydroxy-3-methylazetidine-1-carbonyl)piperidin-1-yl)pyridin-3-yl)pyrazolo[1,5-a]pyrimidine-3-carboxamide] | +++ (Compounds with a Cisplatin sensitization value of <0.02 μM are marked with “+++.”)
Nc1nn2cc(F)cnc2c1C(=O)Nc1cncc(F)c1N1CCC(C(=O)N2CCC(N3CCCCC3)C2)CC1 (centres unmarked) [I-G-64, 2-amino-6-fluoro-N-(5-fluoro-4-(4-(3-(piperidin-1-yl)pyrrolidine-1-carbonyl)piperidin-1-yl)pyridin-3-yl)pyrazolo[1,5-a]pyrimidine-3-carboxamide] | +++ (Compounds with a Cisplatin sensitization value of <0.02 μM are marked with “+++.”)
CN1CCN(C(=O)C2CCN(c3c(F)cncc3NC(=O)c3c(N)nn4cc(F)cnc34)CC2)C2CC21 (centres unmarked) [I-G-65, 2-amino-6-fluoro-N-(5-fluoro-4-(4-(5-methyl-2,5-diazabicyclo[4.1.0]heptane-2-carbonyl)piperidin-1-yl)pyridin-3-yl)pyrazolo[1,5-a]pyrimidine-3-carboxamide] | +++ (Compounds with a Cisplatin sensitization value of <0.02 μM are marked with “+++.”)
Nc1nn2cc(F)cnc2c1C(=O)Nc1cncc(Cl)c1N1CCC(C(=O)N2CCN3CCC2CC3)CC1 [I-G-66, N-(4-(4-(1,4-diazabicyclo[3.2.2]nonane-4-carbonyl)piperidin-1-yl)-5-chloropyridin-3-yl)-2-amino-6-fluoropyrazolo[1,5-a]pyrimidine-3-carboxamide] | +++ (Compounds with a Cisplatin sensitization value of <0.02 μM are marked with “+++.”)
